Laboratory results taken from ChEMBL document CHEMBL1649257, “Rapid detection of a point mutation in the parC gene associated with decreased susceptibility to fluoroquinolones in Mycoplasma bovis” (2009).
Values after ≈ are worked out from the molar mass of the structure shown.

Assays:
Type in all cases: functional
Mycoplasmopsis bovis [1] = assay: Antimicrobial activity against Mycoplasma bovis isolate 8998 harboring GyrA 83Ser and ParC 84Asp mutant by broth microdilution method
Mycoplasmopsis bovis [2] = assay: Antimicrobial activity against Mycoplasma bovis isolate 1972 harboring GyrA 83Phe and ParC 84Asn mutant by broth microdilution method
Mycoplasmopsis bovis [3] = assay: Antimicrobial activity against Mycoplasma bovis isolate 3222 harboring GyrA 83Ser and ParC 84Asp mutant by broth microdilution method
Mycoplasmopsis bovis [4] = assay: Antimicrobial activity against Mycoplasma bovis isolate 523 harboring GyrA 83Phe and ParC 84Asn mutant by broth microdilution method
Mycoplasmopsis bovis [5] = assay: Antimicrobial activity against Mycoplasma bovis isolate 7910 harboring GyrA 83Ser and ParC 84Asp mutant by broth microdilution method
Mycoplasmopsis bovis [6] = assay: Antimicrobial activity against Mycoplasma bovis isolate 5180 harboring GyrA 83Ser and ParC 84Asp mutant by broth microdilution method
Mycoplasmopsis bovis [7] = assay: Antimicrobial activity against Mycoplasma bovis isolate 2670 harboring GyrA 83Ser and ParC 84Asp mutant by broth microdilution method
Mycoplasmopsis bovis [8] = assay: Antimicrobial activity against Mycoplasma bovis isolate K harboring GyrA 83Ser and ParC 84Asp mutant by broth microdilution method
Mycoplasmopsis bovis [9] = assay: Antimicrobial activity against Mycoplasma bovis isolate 4879 harboring GyrA 83Phe and ParC 84Asn mutant by broth microdilution method
Mycoplasmopsis bovis [10] = assay: Antimicrobial activity against Mycoplasma bovis isolate 2E harboring GyrA 83Ser and ParC 84Asp mutant by broth microdilution method
Mycoplasmopsis bovis [11] = assay: Antimicrobial activity against Mycoplasma bovis isolate 6226 harboring GyrA 83Ser and ParC 84Asp mutant by broth microdilution method
Mycoplasmopsis bovis [12] = assay: Antimicrobial activity against Mycoplasma bovis isolate 8830 harboring GyrA 83Phe and ParC 84Asn mutant by broth microdilution method
Mycoplasmopsis bovis [13] = assay: Antimicrobial activity against Mycoplasma bovis isolate 2643 harboring GyrA 83Phe and ParC 84Asp mutant by broth microdilution method
Mycoplasmopsis bovis [14] = assay: Antimicrobial activity against Mycoplasma bovis isolate 3179 harboring GyrA 83Phe and ParC 84Asp mutant by broth microdilution method
Mycoplasmopsis bovis [15] = assay: Antimicrobial activity against Mycoplasma bovis isolate 77 harboring GyrA 83Phe and ParC 84Asp mutant by broth microdilution method
Mycoplasmopsis bovis [16] = assay: Antimicrobial activity against Mycoplasma bovis isolate 4241 harboring GyrA 83Phe and ParC 84Asn mutant by broth microdilution method
Mycoplasmopsis bovis [17] = assay: Antimicrobial activity against Mycoplasma bovis isolate 330 harboring GyrA 83Ser and ParC 84Asp mutant by broth microdilution method
Mycoplasmopsis bovis [18] = assay: Antimicrobial activity against Mycoplasma bovis isolate H harboring GyrA 83Ser and ParC 84Asp mutant by broth microdilution method
Mycoplasmopsis bovis [19] = assay: Antimicrobial activity against Mycoplasma bovis isolate 4554 harboring GyrA 83Ser and ParC 84Asp mutant by broth microdilution method
Mycoplasmopsis bovis [20] = assay: Antimicrobial activity against Mycoplasma bovis isolate 5848 harboring GyrA 83Phe and ParC 84Asp mutant by broth microdilution method
Mycoplasmopsis bovis [21] = assay: Antimicrobial activity against Mycoplasma bovis isolate 111-2 harboring GyrA 83Ser and ParC 84Asp mutant by broth microdilution method
Mycoplasmopsis bovis [22] = assay: Antimicrobial activity against Mycoplasma bovis isolate 3181 harboring GyrA 83Phe and ParC 84Asn mutant by broth microdilution method
Mycoplasmopsis bovis [23] = assay: Antimicrobial activity against Mycoplasma bovis isolate 4243 harboring GyrA 83Phe and ParC 84Asn mutant by broth microdilution method
Mycoplasmopsis bovis [24] = assay: Antimicrobial activity against Mycoplasma bovis isolate 1665 harboring GyrA 83Phe and ParC 84Asn mutant by broth microdilution method
Mycoplasmopsis bovis [25] = assay: Antimicrobial activity against Mycoplasma bovis isolate 9249 harboring GyrA 83Ser and ParC 84Asp mutant by broth microdilution method
Mycoplasmopsis bovis [26] = assay: Antimicrobial activity against Mycoplasma bovis isolate 3374 harboring GyrA 83Phe and ParC 84Asp mutant by broth microdilution method
Mycoplasmopsis bovis [27] = assay: Antimicrobial activity against Mycoplasma bovis isolate 962 harboring GyrA 83Phe and ParC 84Asn mutant by broth microdilution method
Mycoplasmopsis bovis [28] = assay: Antimicrobial activity against Mycoplasma bovis isolate 1306 harboring GyrA 83Phe and ParC 84Asp mutant by broth microdilution method
Mycoplasmopsis bovis [29] = assay: Antimicrobial activity against Mycoplasma bovis isolate 6099 harboring GyrA 83Ser and ParC 84Asp mutant by broth microdilution method
Mycoplasmopsis bovis [30] = assay: Antimicrobial activity against Mycoplasma bovis isolate 170 harboring GyrA 83Ser and ParC 84Asp mutant by broth microdilution method
Mycoplasmopsis bovis [31] = assay: Antimicrobial activity against Mycoplasma bovis isolate 4925 harboring GyrA 83Ser and ParC 84Asn mutant by broth microdilution method
Mycoplasmopsis bovis [32] = assay: Antimicrobial activity against Mycoplasma bovis isolate 2029 harboring GyrA 83Phe and ParC 84Asp mutant by broth microdilution method
Mycoplasmopsis bovis [33] = assay: Antimicrobial activity against Mycoplasma bovis isolate 1416 harboring GyrA 83Phe and ParC 84Asp mutant by broth microdilution method
Mycoplasmopsis bovis [34] = assay: Antimicrobial activity against Mycoplasma bovis isolate PG45 harboring GyrA 83Ser and ParC 84Asp mutant by broth microdilution method
Mycoplasmopsis bovis [35] = assay: Antimicrobial activity against Mycoplasma bovis isolate 861 harboring GyrA 83Ser and ParC 84Asp mutant by broth microdilution method
Mycoplasmopsis bovis [36] = assay: Antimicrobial activity against Mycoplasma bovis isolate 3036 harboring GyrA 83Phe and ParC 84Asp mutant by broth microdilution method
Mycoplasmopsis bovis [37] = assay: Antimicrobial activity against Mycoplasma bovis isolate 7043 harboring GyrA 83Phe and ParC 84Asp mutant by broth microdilution method
Mycoplasmopsis bovis [38] = assay: Antimicrobial activity against Mycoplasma bovis isolate 9603 harboring GyrA 83Ser and ParC 84Asp mutant by broth microdilution method
Mycoplasmopsis bovis [39] = assay: Antimicrobial activity against Mycoplasma bovis isolate 476-2 harboring GyrA 83Ser and ParC 84Asp mutant by broth microdilution method
Mycoplasmopsis bovis [40] = assay: Antimicrobial activity against Mycoplasma bovis isolate 2D harboring GyrA 83Ser and ParC 84Asp mutant by broth microdilution method
Mycoplasmopsis bovis [41] = assay: Antimicrobial activity against Mycoplasma bovis isolate 9771 harboring GyrA 83Phe and ParC 84Asn mutant by broth microdilution method
Mycoplasmopsis bovis [42] = assay: Antimicrobial activity against Mycoplasma bovis isolate 2458 harboring GyrA 83Phe and ParC 84Asp mutant by broth microdilution method
Mycoplasmopsis bovis [43] = assay: Antimicrobial activity against Mycoplasma bovis isolate 8934 harboring GyrA 83Ser and ParC 84Asp mutant by broth microdilution method

`CCN1CCN(c2cc3c(cc2F)c(=O)c(C(=O)O)cn3C2CC2)CC1` [ENROFLOXACIN] showed an MIC (Mycoplasmopsis bovis [1]) of 0.08 mg/L (≈ 0.223 µM), an MIC (Mycoplasmopsis bovis [2]) of 2.5 mg/L (≈ 6.96 µM) and an MIC (Mycoplasmopsis bovis [3]) of 0.16 mg/L (≈ 0.445 µM). It also gave an MIC (Mycoplasmopsis bovis [4]) of 2.5 mg/L (≈ 6.96 µM), an MIC (Mycoplasmopsis bovis [5]) of 0.32 mg/L (≈ 0.89 µM) and an MIC (Mycoplasmopsis bovis [6]) of 0.16 mg/L (≈ 0.445 µM). It also gave an MIC (Mycoplasmopsis bovis [7]) of 0.08 mg/L (≈ 0.223 µM), an MIC (Mycoplasmopsis bovis [8]) of 0.16 mg/L (≈ 0.445 µM) and an MIC (Mycoplasmopsis bovis [9]) of 5 mg/L (≈ 13.9 µM). For the same compound, the MIC (Mycoplasmopsis bovis [10]) was 0.16 mg/L (≈ 0.445 µM), the MIC (Mycoplasmopsis bovis [11]) was 0.32 mg/L (≈ 0.89 µM) and the MIC (Mycoplasmopsis bovis [12]) was 5 mg/L (≈ 13.9 µM). It also gave an MIC (Mycoplasmopsis bovis [13]) of 1.25 mg/L (≈ 3.48 µM), an MIC (Mycoplasmopsis bovis [14]) of 0.63 mg/L (≈ 1.75 µM) and an MIC (Mycoplasmopsis bovis [15]) of 0.63 mg/L (≈ 1.75 µM). It also gave an MIC (Mycoplasmopsis bovis [16]) of 2.5 mg/L (≈ 6.96 µM), an MIC (Mycoplasmopsis bovis [17]) of 0.08 mg/L (≈ 0.223 µM) and an MIC (Mycoplasmopsis bovis [18]) of 0.16 mg/L (≈ 0.445 µM). The MIC (Mycoplasmopsis bovis [19]) was 0.16 mg/L (≈ 0.445 µM), the MIC (Mycoplasmopsis bovis [20]) was 1.25 mg/L (≈ 3.48 µM) and the MIC (Mycoplasmopsis bovis [21]) was 0.16 mg/L (≈ 0.445 µM). It also gave an MIC (Mycoplasmopsis bovis [22]) of 2.5 mg/L (≈ 6.96 µM), an MIC (Mycoplasmopsis bovis [23]) of 2.5 mg/L (≈ 6.96 µM) and an MIC (Mycoplasmopsis bovis [24]) of 2.5 mg/L (≈ 6.96 µM). For the same compound, the MIC (Mycoplasmopsis bovis [25]) was 0.16 mg/L (≈ 0.445 µM), the MIC (Mycoplasmopsis bovis [26]) was 1.25 mg/L (≈ 3.48 µM) and the MIC (Mycoplasmopsis bovis [27]) was 5 mg/L (≈ 13.9 µM). For the same compound, the MIC (Mycoplasmopsis bovis [28]) was 1.25 mg/L (≈ 3.48 µM), the MIC (Mycoplasmopsis bovis [29]) was 0.16 mg/L (≈ 0.445 µM) and the MIC (Mycoplasmopsis bovis [30]) was 0.63 mg/L (≈ 1.75 µM). The MIC (Mycoplasmopsis bovis [31]) was 2.5 mg/L (≈ 6.96 µM), the MIC (Mycoplasmopsis bovis [32]) was 0.32 mg/L (≈ 0.89 µM) and the MIC (Mycoplasmopsis bovis [33]) was 0.32 mg/L (≈ 0.89 µM). It also gave an MIC (Mycoplasmopsis bovis [34]) of 0.16 mg/L (≈ 0.445 µM), an MIC (Mycoplasmopsis bovis [35]) of 0.08 mg/L (≈ 0.223 µM) and an MIC (Mycoplasmopsis bovis [36]) of 1.25 mg/L (≈ 3.48 µM). The MIC (Mycoplasmopsis bovis [37]) was 0.32 mg/L (≈ 0.89 µM), the MIC (Mycoplasmopsis bovis [38]) was 0.16 mg/L (≈ 0.445 µM) and the MIC (Mycoplasmopsis bovis [39]) was 0.16 mg/L (≈ 0.445 µM). It also gave an MIC (Mycoplasmopsis bovis [40]) of 0.16 mg/L (≈ 0.445 µM), an MIC (Mycoplasmopsis bovis [41]) of 5 mg/L (≈ 13.9 µM) and an MIC (Mycoplasmopsis bovis [42]) of 1.25 mg/L (≈ 3.48 µM). For the same compound, the MIC (Mycoplasmopsis bovis [43]) was 0.32 mg/L (≈ 0.89 µM).
